Laboratory results taken from patent publication US10564164B2, “Fluorescent probe, singlet oxygen detection agent, and singlet oxygen detection method” (Osaka University, priority 2014, dated 2020).

Columns and labels:
[1] = Selectivity test against various reactive oxygen species; type: physicochemical; settings: 5 μM in methanol:PBS pH 7.4 1:1, 10 minutes in dark
Procedure: A test was performed to confirm whether Si-DMA of Example 1 causes no self-oxidation of dye and is selectively responsive to singlet oxygen.
However, formation of aggregates decreases the effective concentration of the dye, thereby decreasing the reaction speed of Si-DMA. Therefore, a 5-μM Si-DMA solution was first prepared using a mixed solvent containing methanol and a pH 7.4 PBS buffer solution mixed at 1:1. In this solution, Si-DMA was present as a monomer. Subsequently, 10-mM solutions of various reactive oxygen species (ROS)(^1O2, O2.^−, H2O2, HOCl, ROO., and .OH) were prepared by adding the following additives to the 5-μM Si-DMA solution obtained above.
5. ROO.: 10 mM 2,2-azobis(2-amidinopropane)dihydrochloride
Under intense magnetic stirring, each Si-DMA solution containing reactive oxygen species (ROS) was stored for 10 minutes in a dark room. […]

[2] = tested on: HeLa cells; experiment: Viable cell imaging / localization in organelle; type: cell-based; settings: Si-DMA 20 nM / 100 nM, co-staining with Mito Tracker Green FM
Procedure: A treatment requiring incubation of less than two hours was performed using a serum-free culture medium containing 20 mM of HEPES, and a treatment requiring incubation of four hours or more was performed using a blood serum-containing medium containing 20 mM of HEPES so as to maintain the cell viability. To label mitochondria, Mito Tracker® Green FM was diluted to 50 nM, and incubated for 30 minutes. Further, 10000 MW of dextran (A488- and A647-dextran) labeled with Alexa Fluor® 488 or Alexa Fluor® 647 was diluted to 50 μg/mL, and incubated for 24 hours, thereby staining lysosome.
Subsequently, a quick protocol provided by Molecular Probe® for introducing CellROX Green was followed. […] As a result, as previously reported, the conversion of 5-ALA into protoporphyrin IX (PpIX) in the mitochondria was confirmed by the fluorescence luminescence of PpIX.
In order to monitor an increase in fluorescence upon light irradiation on Si-DMA of Example 1, irradiation on reactive oxygen species was performed while monitoring the probe using an IX81 inverted fluorescence microscope (Olympus Corporation) and 640-nm CW laser (Coherent). […] The images of luminescence were collected and recorded by an EMCCD camera (Evolve 512; Roper Scientific) via a dichroic beam splitter (DI02-R635; Semrock) and a bandpass filter (HQ690/70; Chroma). […]

[3] = Fluorescence change after singlet oxygen generated chemically by NaOCl and H2O2; type: physicochemical; settings: for fluorescence depending on concentration of singlet oxygen: NaClO and H2O2, DMSO:methanol:tris buffer 1:49:50, 5 μM
Procedure: Further, singlet oxygen was introduced into Si-DMA using a chemical catalyst. More specifically, singlet oxygen was introduced using 10 mM NaOCl and 10 mM H2O2. In this case as well, a spectral change similar to that in FIG. 1 was observed. […] The black arrow in FIG. 4a) and the red arrow in FIG. 4b) respectively show a loss of the anthracene structure, and an increase in the fluorescence of Si-DMA. The fluorescence increased about 10 times by 10-minute incubation using NaOCl and H2O2. By introducing a greater amount of singlet oxygen, more Si-DMA is expected to change into Si-DMEP.
The measurement was performed by generating singlet oxygen using NaClO and H2O2 in a solution containing DMSO:methanol:tris buffer agent=1:49:50 (Si-DMA concentration=5 μM).

In the case of `Cc1c2ccccc2c(C)c2cc(C3=C4C=CC(=[N+](C)C)C=C4[Si](C)(C)c4cc(N(C)C)ccc43)ccc12` [Si-DMA], the “fluorescence intensity in the presence of reactive oxygen species” value ([1]; other reactive oxygen species (O2.-, H2O2, HOCl, ROO., .OH)) is reported as “no increase in fluorescence was observed”, the “fluorescence intensity in the presence of reactive oxygen species” value ([1]; singlet oxygen (10 mM NaOCl and 10 mM H2O2)) is reported as “significantly increased” and the intracellular localization [2] is reported as “selectively localized in mitochondria”. For the same molecule, the increase of fluorescence ([3]; 10 mM NaOCl and 10 mM H2O2, 10-minute incubation) was “about 10 times”, the “fluorescence depending on concentration of singlet oxygen” value ([3]; aggregate) was “increase in fluorescence in proportion to the concentration of singlet oxygen” and the “fluorescence depending on concentration of singlet oxygen” value ([3]; monomer) was “increase in fluorescence in proportion to the concentration of singlet oxygen”.
